Reference: paper PMC7429848, “XJB-5-131 inhibited ferroptosis in tubular epithelial cells after ischemia−reperfusion injury” (Cell Death & Disease, 2020)

What was measured:
[1] = stated without reference; cited from earlier work
[2] = In vivo-based pharmacokinetic model, LC-MS/MS of plasma and tissue homogenates; parameters: species or system mice; details: for AUC0–6 h / AUC0–∞ / MRT0-6h / MRT0–∞ / t1/2 / tmax / Cmax: 3 mg/kg i.v. bolus
Description: (§1) The mice were sacrificed at 0.25, 0.5, 1, 2, 4 and 6 h after i.v. bolus administration of XJB-5-131. […] The concentration of XJB-5-131 in the liver was not obtained. The half-life (t1/2) was approximately 2 h. The area under the concentration–time curve (AUC0−6 h) of plasma was 322.7 µg·h/ml. The AUC0−6 h in the kidney was approximately […] compared with that of the AUC0−6 h in the brain (234.7 µg·h/g versus 4.1 µg·h/g). […] Moreover, the concentration in the kidney was almost close to the plasma concentration and lasted much longer, which predicted the therapeutic value of XJB-5-131 in kidney diseases. Next, we intravenously injected 3 mg/kg BODIPY-FL-XJB-5-131 into mice to explore the distribution of XJB-5-131 in the kidney, and whole-body fluorescence was analyzed at 0 and 30 min after injection.
Mice were injected with 3 mg/kg XJB-5-131 and were sacrificed at 0.25, 0.5, 1, 2, 4 and 6 h after injection. Plasma, kidney, liver and brain were collected to assess the XJB-5-131 concentration by LC-MS/MS. For plasma samples, an aliquot of 8 µL was protein precipitated with 160 µL IS, and the mixture was vortex-mixed and centrifuged at 12,000 × g for 15 min at 4 °C. Seventy microliters of supernatant was transferred to a 96-well plate and centrifuged for 5 min at 3220 × g and 4 °C, and then 6 µL of supernatant was directly injected for LC-MS/MS analysis. For tissue samples, tissue homogenates (kidney, brain and liver) were prepared by homogenizing tissue with threefold volume of homogenization solution (MeOH/15 mM PBS = 1:2). An aliquot of 20 µL was protein precipitated with 400 µL IS, and the mixture was vortex-mixed and centrifuged at 12,000 rpm for 15 min at 4 °C. Seventy microliters of supernatant was transferred to a 96-well plate and centrifuged for 5 min at 3220 × g and 4 °C, and then 6 µL of supernatant was directly injected for LC-MS/MS analysis.

[3] = tested on: renal I/R injury; experiment: Renal I/R model: kidney injury and TEC repair (gross appearance, PAS, KIM-1, Ki67, Sox9); assay type: in vivo; details: mice
Description: (§2) After a minimum of 7 days of acclimation, the mice were anesthetized with a 1% sodium pentobarbital solution (6 mL/kg) by intraperitoneal injection and then placed in a prone position to maintain their body temperature at 36.8–37.2 °C during surgery. After a unilateral dorsal incision to expose the kidneys, the renal artery was occluded using a microvascular clamp (RoBoz Surgical Instrument Co, Gaithersburg, MD, USA) for 30 min. After that, the clamps were removed, and the animals were allowed to recover with free access to food and water.
(§3) To study the effects of XJB-5-131 on I/R injury, the mice were randomly allocated into the Vehi group and XJB group. The mice were injected intraperitoneally (i.p.) with XJB-5-131 (10 mg/kg) or the respective control 30 min prior to ischemia and for 3 consecutive days after surgery.
Paraffin-embedded renal sections (4 μm) were subjected to PAS staining to detect morphological changes in the cortex and medulla, and were scored in a blinded fashion using a semiquantitative design as previously reported.
(§4) Paraffin-embedded renal sections (4 μm) were deparaffinized in xylene, rehydrated in graded alcohol and blocked with 10% goat serum for 30 min. Mouse monoclonal anti-GSDMD (1:50, Santa), mouse monoclonal anti-4-HNE (1:100, R&D), rabbit polyclonal anti-MLKL, goat polyclonal anti-KIM-1 (1:800, R&D), rabbit polyclonal anti-Ki67 (1:100, Abcam), rabbit polyclonal anti-ACSL4 (1:200, Abcam), rabbit polyclonal anti-CD3 (1:100, Dako), rabbit polyclonal anti-ly6G (1:100, Abcam), rat polyclonal anti-F4/80 (1:50, Abcam), and rabbit polyclonal anti-Sox9 (1:100, Abcam) primary antibodies were incubated at 4 °C overnight and subsequently visualized with HRP-conjugated secondary antibody for IHC and fluorescently labeled secondary antibodies for IF. Staining was carefully quantified in each slide by capturing 15 randomly chosen fields in a blind manner, and the data were analyzed using Image Pro Plus software (Media Cybernetics, USA).

[4] = tested on: renal I/R injury; experiment: Renal I/R model: intrarenal inflammatory cell infiltration and proinflammatory cytokine mRNA; assay type: in vivo; details: mice, unilateral I/R, 10 mg/kg i.p., vs I/R group
Description: as §2, §3, §4
Total RNA was extracted from kidney tissue using TRIzol reagent (Takara, Japan). Real-time PCR was carried out using a LightCycler 480 system (Roche, Pleasanton, CA, USA). Relative mRNA for RANTES, MCP-1, IL-6 and GAPDH was quantified in triplicate by SYBR Green RT-PCR.

[5] = tested on: ferroptosis in TECs; experiment: Renal I/R model: ferroptosis readouts (mitochondrial morphology, GSH-Px, MDA, 4-HNE, GPX4, ACSL4); assay type: in vivo; details: mice, unilateral I/R, 10 mg/kg i.p.
Description: as §2, §3
The renal cortices were cut into small pieces (1 mm^3) and fixed with 2.5% glutaraldehyde. Then the samples were dehydrated and embedded. Ultra-thin sections were stained and observed with a transmission electron microscope (Tecnai G^2 20 TWIN, FEI, USA).
as §4
The levels of GSH-Px in kidneys were determined using GSH-Px assay kit, respectively (Beyotime China) in line with the manufacturer’s instructions.
Quantification of MDA levels in kidney tissue after I/R or sham operation was performed by using an MDA assay kit (Beyotime).
(§5) Renal tissues were lysed in RIPA lysis buffer containing protease inhibitor. Equal amounts of proteins (50 μg) were loaded and separated by 10% SDS-PAGE. The proteins were transferred onto polyvinylidene fluoride membranes (Millipore, USA). The membranes were blocked with 5% skimmed milk in Tris Buffered saline Tween (TBST) for 1 h at room temperature and were then incubated with appropriate primary antibodies against GPX4 (1:10000, Abcam), ACSL4 (1:10000, Abcam, UK), MLKL (1:1000, Abgent), p-MLKL (1:1000, Abcam), RIPK3 (1:1000, ABclonal), p-RIPK3 (1:1000, Abcam), GSDMD (1:1000, Santa) and GAPDH (1:5000, ABclonal) at 4 °C overnight. The blots were washed with TBST for 5 min and incubated with HRP-conjugated secondary antibodies (1:5000; ABclonal) for 1 h. After washing with TBST, the blots were visualized by the enhanced chemiluminescence method (ECL, Bio-Rad). The relative intensity of the target band was normalized to the corresponding loading control intensity and quantified by using ImageJ (NIH, USA).

[6] = tested on: RIPK3, MLKL, GSDMD; experiment: Renal I/R model: necroptosis and pyroptosis markers by western blot; assay type: in vivo; details: mice, unilateral I/R, with or without XJB-5-131
Description: as §2, §3, §5

[7] = Whole-body and organ fluorescence imaging and kidney frozen sections after BODIPY-FL-XJB-5-131 injection; assay type: in vivo; details: mice, BODIPY-FL-labeled XJB-5-131 i.v.
Description: as §1
Fig. 5 Pharmacokinetics and distribution analysis of XJB-5-131 in vivo and in vitro. a The structure of XJB-5-131. b The tissue concentrations of XJB-5-131 in mice. Mice were injected with XJB-5-131 and sacrificed after 0.25, 0.5, 1, 2, 4 and 6 h. Plasma, kidney, liver and brain were collected for in vivo-based pharmacokinetic assays by LC-MS/MS. […] Whole-body fluorescence imaging was performed at 0 and 30 min, and the fluorescence intensity of various organs (heart, kidney, liver and brain) was measured after 30 min. […]

[8] = parameters: method as in PMID 26415224; details: cited from earlier work
[9] = tested on: HT-1080 cells; parameters: method as in PMID 27725964; details: cited from earlier work
[10] = unilateral I/R, 10 mg/kg i.p., day 3, vs I/R group

## CCOC(=O)c1ccc(NC2CCCCC2)c(N)c1 [Fer-1, ferrostatin-1]
[1]
  stability in plasma: poor

## CC(C)C[C@@H](/C=C/[C@H](Cc1ccccc1)C(=O)N1CCC[C@H]1C(=O)N[C@H](C(=O)N[C@@H](CCCNC(=O)OCc1ccccc1)C(=O)NC1CC(C)(C)N([O])C(C)(C)C1)C(C)C)NC(=O)OC(C)(C)C [XJB-5-131]
[2]; mice, brain
  AUC0–6 h: 4052 ng·h/g
  AUC0–∞: 4859 ng·h/g
  MRT0-6h: 3.14 h
  MRT0–∞: 1.98 h
  t1/2: 2.07 h
  tmax: 0.25 h
[2]; mice, brain and plasma
  Cmax: 2353 ng/g
[2]; mice, kidney
  AUC0–6 h: 234,683 ng·h/g
  AUC0–∞: 255,150 ng·h/g
  Cmax: 261,067 ng/g
  MRT0-6h: 2.05 h
  MRT0–∞: 1.42 h
  t1/2: 2.23 h
  tmax: 0.25 h
[2]; mice, plasma
  AUC0–6 h: 322,745 ng·h/mL
  AUC0–∞: 364,783 ng·h/mL
  Cmax: 186,667 ng/mL
  MRT0-6h: 2.65 h
  t1/2: 1.77 h
  tmax: 0.25 h
[2]; mice, i.v.
  half-life (t1/2): approximately 2 h
  plasma-tissue drug transfer: fast
[2]; mice, i.v., in vivo PK
  plasma stability: superior plasma stability
[2]; mice, i.v., kidney
  AUC0−6 h: 234.7 µg·h/g
  calculated maximal concentration (Cmax): 261.1 µg/g
[2]; mice, i.v., kidney and brain
  AUC0−6 h: 4.1 µg·h/g
[2]; mice, i.v., plasma
  AUC0−6 h: 322.7 µg·h/mL
  calculated maximal concentration (Cmax): 186.7 µg/mL
[2]; mice, i.v., plasma, kidney and brain
  time of Cmax after vein injection: 15 min
[2]; mouse liver homogenate, not detected by LC-MS/MS
  stability in liver homogenate: unstable
[3]; I/R, day 3, PAS staining
  benefit at 10mg/kg versus 2.5mg/kg or 20mg/kg: better beneficial than other doses
[3]; I/R, day 3, vs I/R+Vehicle
  kidney injuries and casts (PAS staining): ameliorated
[3]; [10]
  KIM-1 expression (immunofluorescent staining): decreased
  Sox9 in TECs: dramatically activated
  congestion area at the junction of cortex and medulla: reduced
  loss of tubules (PAS tubular damage): alleviated
  number of Ki67-positive nuclei in TECs: much higher number
  ratio of injured kidney weight to body weight: decreased
[4]
  IL-6 mRNA expression in kidney: suppressed
  MCP-1 mRNA expression in kidney: suppressed
  RANTES mRNA expression in kidney: suppressed
  infiltration of inflammatory cells in the kidney (ly6G, CD3, F4/80 positive cells): reduced
[5]
  4-HNE staining: less accumulation of lipid peroxidation
  I/R-induced increase in ACSL4 expression (western blot): inhibited
  renal GPX4 expression (western blot): significantly improved
  resistance of mitochondria in TECs to I/R injury (electron microscopy): increased resistance
[5]; day 3
  GSH-Px level in kidney: increased levels
  MDA level in kidney: decreased levels
[6]
  cleavage of GSDMD (GSDMD-N): no statistically significant difference
  expression of phosphorylated MLKL: no difference
  expression of phosphorylated RIPK3: no difference
[7]
  cell type distribution in the kidney (fluorescence microscopy of frozen sections): majority of XJB-5-131-positive cells were kidney TECs
[8]
  conversion into XJB-hydroxylamine in situ: easily converted into XJB-hydroxylamine
[9]
  effect on ferroptosis: anti-ferroptotic effects
